Experimental data taken from PubChem BioAssay (NCI).
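Assay format: 96-well plates, 48-hour exposure. Definition used: TGI = concentration required for complete inhibition of growth.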

Tests used:
Assay in all cases: DTP human tumour cell line panel, 48 h
[1] = test system: MDA-N
[2] = test system: UACC-257 melanoma
[3] = test system: HCT-15 colon
[4] = test system: PC-3 prostate
[5] = test system: COLO 205 colon
[6] = test system: NCI-H226 lung
[7] = test system: EKVX NSCLC
[8] = test system: SNB-19 CNS
[9] = test system: SR leukemia
[10] = test system: K-562 leukemia
[11] = test system: M14 melanoma
[12] = test system: SNB-75 CNS
[13] = test system: RXF 393 renal
[14] = test system: SK-MEL-5 melanoma
[15] = test system: NCI-H460 lung
[16] = test system: NCI-H23 lung
[17] = test system: HCC-2998 colon
[18] = test system: MOLT-4 leukemia
[19] = test system: CCRF-CEM leukemia
[20] = test system: SW-620 colon
[21] = test system: UO-31 renal
[22] = test system: LOX IMVI melanoma
[23] = test system: IGROV1 ovarian
[24] = test system: U251 CNS
[25] = test system: NCI-H522 lung
[26] = test system: SK-MEL-28 melanoma
[27] = test system: OVCAR-3 ovarian
[28] = test system: OVCAR-8 ovarian
[29] = test system: ACHN renal
[30] = test system: DU-145 prostate
[31] = test system: A498 renal
[32] = test system: RPMI-8226 leukemia
[33] = test system: SF-268 CNS
[34] = test system: HOP-92 NSCLC
[35] = test system: SF-539 CNS
[36] = test system: HS 578T breast
[37] = test system: HOP-62 NSCLC
[38] = test system: SK-MEL-2 melanoma
[39] = test system: CAKI-1 renal
[40] = test system: MALME-3M melanoma
[41] = test system: OVCAR-5 ovarian
[42] = test system: NCI/ADR-RES ovarian
[43] = test system: MDA-MB-435
[44] = test system: MDA-MB-231 breast
[45] = test system: MCF7 breast
[46] = test system: SN12C renal
[47] = test system: HL-60(TB) leukemia
[48] = test system: KM12 colon
[49] = test system: A549 NSCLC
[50] = test system: T-47D breast
[51] = test system: SF-295 CNS
[52] = test system: HT29 colon
[53] = test system: BT-549 breast
[54] = test system: OVCAR-4 ovarian
[55] = test system: TK-10 renal
[56] = test system: SK-OV-3 ovarian
[57] = test system: 786-0 renal
[58] = test system: UACC-62 melanoma
[59] = test system: HCT-116 colon

Measured: TGI

C=CCn1c(=O)c(Br)nn(CCOCP(=O)(OCC)OCC)c1=O
> 100 µM: [1] | [2] | [3] | [4] | [5] | [6] | [7] | [8] | [9] | [10] | [11] | [12] | [13] | [14] | [15] | [16] | [17] | [18] | [19] | [20] | [21] | [22] | [23] | [24] | [25] | [26] | [27] | [28] | [29] | [30] | [31] | [32] | [33] | [34] | [35] | [36] | [37] | [38] | [39] | [40] | [41] | [42] | [43] | [44] | [45] | [46] | [47] | [48] | [49] | [50]

COn1oc(=O)c2ccccc21
> 100 µM: [1] | [51] | [2] | [3] | [52] | [4] | [5] | [6] | [7] | [8] | [10] | [53] | [11] | [12] | [13] | [14] | [15] | [16] | [54] | [17] | [18] | [19] | [55] | [20] | [21] | [22] | [23] | [24] | [25] | [26] | [27] | [28] | [29] | [30] | [31] | [32] | [33] | [34] | [35] | [36] | [56] | [37] | [38] | [39] | [40] | [41] | [57] | [42] | [43] | [44] | [58] | [45] | [46] | [47] | [48] | [49] | [59]
